Measured values published in patent EP0147980A2, “A 5-nitro-2-furanyl derivative and its use as an anti-parasitic agent” (Rossignol, Jean François, priority 1983, dated 1985).
Values joined by “and” are separate entries in the source; they are usually repeats but may differ in a detail not shown here. Equal values may be shown once.

Assays:
Type in all cases: in vivo
Schistosoma mansoni [1] = experiment: Primary curative test against Schistosoma mansoni in hamster
Protocol: The primary curative test evaluates the therapeutic activity of the drug against S. mansoni in hamster. Interpretation of the test is based upon observation of a shift of worms from the portal and mesenteric veins to the liver under the influence of the test drug. Hamsters weighing 150 to 250 grams were exposed to 150-250 S. mansoni cercariae by the ring method. 30 to 35 days after infection, the test drug (compound (I)) was administered as a 200 mg/kg daily dose for four consecutive days. The drug was administered by oral gavage suspended in gum syrup. Hamsters were sacrificed three days after the last drug treatment. The liver was removed, squashed between two slides, and the number of live and dead worms in the liver were recorded. From experience, the total worm burden in the portal circulation of S. mansoni infected hamsters ranges from 20 to 50 worms, i.e., […] of the total number of cercariae injected. Over 80% of these worms reside in the extra-hepatic portal and mesenteric veins. Thus, when the liver is removed in control animals about 10 worms could be counted in the liver.

[2] = Acute oral toxicity study in mice
Protocol: The test chemical was administered as a single 4,000 mg/kg oral dose to five male and five female Swiss mice.

Schistosoma mansoni [3] = experiment: Primary prophylactic test (mortality test) against Schistosoma mansoni in mice
Protocol: The primary screening method used to evaluate prophylactic activity against Schistosoma mansoni is a mortality test. Mice are exposed to a massive number of cercariae by tail immersion. In untreated control mice this exposure produces a reproducible mortality pattern with 99+% of the mice dying between 20 and 30 days (mean survival time 24 days). The test compound is administered in a single dose two days after cercarial exposure. A compound is considered active if mice survive to 49 days, at which time they are sacrificed and examined for worms.
The test is of the "prophylactic"-type in the sense that the drug action is on the immature migrating schistosomes and prevents the development of adult worms in the portal circulation.
Mice weighing 18 to 23 grams were exposed to 3500-4500 infective S. mansoni cercariae by tail immersion for 30 minutes, and subsequently housed in groups of five per cage (5 test mice and 5 control mice). Two days after infection, the test compound of the formula (I) was administered subcutaneously as a single 1,280 mg/kg dose suspended in peanut oil to one group of five mice.
Mouse mortality was recorded daily for 49 days after infection. On the 49th day, survivors were sacrificed and the total worm burden was determined by perfusion of the liver and portal circulation (perf-o-suction technique).
Control mice exposed to at least 3500 cercariae and not treated with the test compound (I) experience 99+% mortality, with nearly all deaths occurring between about day 20 and day 30. In treated mice, deaths occurring within one week after drug administration are assumed to be induced by the toxic action of the drug itself, since, control mice rarely die during this period. The survival of drug treated mice to 49 days is interpreted as evidence of drug action which kills or otherwise prevents the development of the migrating immature schistosomes. The- survival of only one mouse has, in our experience, been difficult to reproduce, and, in general, a compound is not considered active unless two or more mice survive to 49 days.

S. japonicum = experiment: Primary curative test against S. japonicum in hamsters; conditions: 1 g/kg single oral gavage
Excerpt: The primary curative test evaluates the therapeutic activity of the drug against S. japonicum in hamsters. Interpretation of the test is based upon observation of a shift of worms from the portal and mesenteric veins to the liver under the influence of the test drug. In addition the mortality of the worms found in the liver, portal and mesenteric veins is also an important criteria of effectiveness in establishing the schistosomicidal effectiveness of the drug. Hamsters weighing 150 to 250 grams were exposed to 100 S. japonicum cercariae by the ring method. 35 to 45 days after infection, the test compound (I) was administered as a single […] by oral gavage, the product being suspended in gum syrup. Out of 10 infected animals, 5 were so treated, with 5 being used as control animals. Hamsters were sacrificed three days after treatment; the liver was removed as well as the portal and mesenteric veins, squashed between two slides and the number of live or dead worms in the liver, the portal and mesenteric veins was recorded.

[4] = individual hamsters 1-5, 200 mg/kg daily for four consecutive days, oral gavage, sacrificed three days after last treatment, 200 mg/kg
[5] = individual surviving mice (Mouse 1-3) sacrificed day 49, 1,280 mg/kg s.c.
[6] = mean of three surviving mice, day 49, 1,280 mg/kg s.c.
[7] = individual treated hamsters 1-5

COc1ccc(NC(=O)C=Cc2ccc([N+](=O)[O-])o2)c(C)c1 [compound (I), N-(4-methoxy-2-methylphenyl)-3-(5-nitro-2-furanyl) propenamide]
shift of worms from the portal and mesenteric veins to the liver (Schistosoma mansoni [1]; 200 mg/kg daily x 4 days oral, parasites in the liver were dead): marked shift of the worms from the portal and mesenteric veins to the liver | effective dose (Schistosoma mansoni [1]; for four consecutive days, oral gavage, hamster): 200 mg/kg per day | No. of worms found in the liver, Treated Animals, F (Schistosoma mansoni [1]; [4]): 17 and 6 and 18 and 60 and 54 | No. of worms found in the liver, Treated Animals, M (Schistosoma mansoni [1]; [4]): 17 and 10 (2×) and 50 and 46 | Mean No. of worms found in the liver, Treated Animals, F (Schistosoma mansoni [1]; mean of five treated hamsters, 200 mg/kg daily x 4 days oral, controls 12.0): 31.0 | Mean No. of worms found in the liver, Treated Animals, M (Schistosoma mansoni [1]; mean of five treated hamsters, 200 mg/kg daily x 4 days oral, controls 15.3): 26.6 | LD50 at 336 h ([2]; mouse, in vivo, po, administered orally in mice): > 4000 mg/kg | clinical observation, weights and macroscopic examination of organs ([2]; single 4,000 mg/kg oral dose, five male and five female Swiss mice, 14 days): no adverse pattern | mice survived until day 49 (Schistosoma mansoni [3]; group of five mice, single 1,280 mg/kg subcutaneous dose in peanut oil two days after infection): Three | day of death of the two test mice that died (Schistosoma mansoni [3]; group of five mice, single 1,280 mg/kg subcutaneous dose, control mice died at days 19, 22, 25, 28 and 32): 41 days | worm burden, Female (Schistosoma mansoni [3]; [5]): 5 and 7 and 6 | worm burden, Total (Schistosoma mansoni [3]; [5]): 15 and 19 and 16 | worm burden, Male (Schistosoma mansoni [3]; individual surviving mice (Mouse 1-3) sacrificed day 49, 1,280 mg/kg s.c., perfusion of liver and portal circulation): 10 (2×) and 12 | worm burden, Female, mean (Schistosoma mansoni [3]; [6]): 6.0 | worm burden, Male, mean (Schistosoma mansoni [3]; [6]): 10.6 | worm burden, Total, mean (Schistosoma mansoni [3]; [6]): 16.6 | activity against the migrating stage of Schistosoma mansoni in mice (Schistosoma mansoni [3]; single subcutaneous administration of 1,280 mg/kg, active = two or more mice survive to 49 days): active | shift of worms from the portal and mesenteric veins to the liver (S. japonicum): marked shift of the worms from the portal and mesenteric veins to the liver | worms killed on the average in the liver, the portal and mesenteric veins (S. japonicum; average of five treated hamsters): about 86% | No. of worms found, Liver, Female (S. japonicum; [7]): 7 and 6 (3×) and 4 | No. of worms found, Mesenteric, Female (S. japonicum; [7]): 5 and 4 (3×) and 2 | No. of worms found, Mesenteric, Male (S. japonicum; [7]): 7 (2×) and 6 and 4 and 8 | No. of worms found, Portal, Female (S. japonicum; [7]): 0 | No. of worms found, Portal, Male (S. japonicum; [7]): 0 | No. of worms found, Liver, Male (S. japonicum; individual treated hamsters 1-5, sacrificed three days after treatment): 8 (2×) and 14 (2×) and 9 | % dead (S. japonicum; worms, individual treated hamsters 1-5, controls 0): 100% (3×) and 70% and 60%
